Values joined by “and” are separate entries in the source; they are usually repeats but may differ in a detail not shown here. Identical values can stand only once.
How the values were obtained:
Aβ oligomers [1] = target: T1, Aβ oligomers (Homo sapiens, UniProt P05067); test: Electronic circular dichroism of Aβ oligomer with ligand; conditions: 0.25 equivalents ligand with 36 μM Aβ
T1 construct: a depsipeptide derivative of Aβ(1–42) was utilized; made in house; host or cells: chemical peptide synthesis (no expression host)
Excerpt: The data on 7 were in agreement with its largely helical structure, also found via NMR. […] This was in accord with the NMR results obtained for the recognition segment 1. The secondary structure was probed also with ThT binding experiments (Figure 9B). Pure Aβ oligomers bound ThT at a certain level. This was in accord with the staining with antibody OC; both are capable of recognizing the fibrillar (or protofibrillar) oligomers. […] The latter process is similar to affinity precipitation.
(A) Observed ellipticities in ECD for 36 μM Aβ oligomer (thick black), 9 μM 7 (thin black), and 36 μM Aβ +9 μM 7 (thick dashed). The hypothetical sum of the ECD curves of the pure samples (thin dashed). (B) ThT binding experiment carried out on 36 µM oligomeric Aβ (white bars) and on 36 µM oligomeric Aβ +7 1∶1 mixtures. The relative fluorescence values were monitored up to 24 h.
CD spectra were measured on a Jasco J815 dichrograph in a 1.00 cm cell using PBS (pH = 7.4) as solvent. Three spectra were accumulated for each sample. The baseline spectrum recorded with only the solvent and it was subtracted from the raw data.

[2] = test system: LTP in mouse hippocampal slices impaired by Aβ(1–42) oligomers; test: Ex vivo hippocampal slice LTP electrophysiology; type: cell-based; conditions: mean ±SEM
Excerpt: We investigated whether 7 could protect against the synaptic plasticity damage caused by Aβ(1–42) oligomers by using a hippocampus slice LTP model. LTP, a correlate of learning and memory has been repeatedly shown to be impaired by Aβ(1–42) oligomers. As negative control, substance 11 was applied. The experimenters were blind to the compounds tested.
These observations indicate the significant protective effect of 7 (Figure 12D). To test the effects of valency, LTP experiments were repeated with 8 under the same conditions.
Via standard procedures, 350-µm-thick transverse hippocampal slices were prepared from the brain of 7-months-old mice (CD1, Animal Breeding Facility, University of Szeged) with a McIlwain tissue chopper (Campden Instruments, Loughborough, UK). Slices were incubated in standard artificial cerebrospinal fluid (ACSF) at ambient temperature for 60 min, during constant gassing with 95% O2–5% CO2. The ACSF contained (mM): NaCl, 130; KCl, 3.5; CaCl2, 2; MgCl2, 2; NaH2PO4, 0.96; NaHCO3, 24; and D-glucose, 10 (pH 7.4). Individual slices were transferred to a 3D-MEA chip with 60 tip-shaped and 60-μm-high electrodes spaced at 100 μm (Ayanda Biosystems, S.A., Lausanne, Switzerland). The slice was continuously perfused with oxygenated ACSF (1.5 ml min^−1 at 34 °C) containing 720 nM Aβ(1–42) oligomers and/or 950 nM ligand throughout the recording session. Data were recorded with a standard, commercially available MEA setup (Multi Channel Systems MCS GmbH, Reutlingen, Germany). The Schaffer-collateral was stimulated by injecting a biphasic current waveform (−100/+100 μs) through one selected electrode at 0.033 Hz. Care was taken to choose the stimulating electrode in the same region from one slice to the other. The peak-to-peak amplitudes of fEPSPs at the stratum pyramidale and stratum radiatum of CA1 were analyzed. After a 30-min incubation period, the threshold and the maximum of stimulation intensity for evoke responses was determined. To evoke responses, 30% of the maximal stimulation intensity was used. LTP was induced by applying a theta-burst stimulation (TBS) pattern at the maximal stimulation intensity. The TBS comprised four trains administered at 20-s intervals with 10 bursts given at 5 Hz per train and 4 pulses at 100 Hz per burst. Statistical analysis was carried out by using two-tailed Student's t-test. For representative raw data see Figure S12.

Aβ oligomers [3] = target: T1, Aβ oligomers; test: Isothermal titration calorimetry (ITC) with Aβ oligomers; type: binding; conditions: 72 μM Aβ oligomer, 288 K
Description: Binding of 7 to the Aβ oligomers was monitored by means of isothermal titration calorimetry (ITC). […] The titrations were run at 288 K in order to improve the signal to noise ratio, and just above the precipitation limit as the ITC method is sensitive to the thermal noise caused by the stirring of large particles. […] These values strongly supported tight binding between the Aβ oligomer species and 7.
Isothermal titrations were performed with a Microcal VP-ITC microcalorimeter. The binding experiments were performed in PBS pH 7.4. The buffer solution was degassed. The concentrations of the ligands and Aβ were corrected for the material content. In individual titrations, 10 μL of ligand was injected from the computer-controlled 300-μL microsyringe at intervals of 300 s into the Aβ oligomer solution dissolved in the same buffer as the ligand. The microsyringe stirring was set to 295 rpm. All measurements were made at 288 K. The Aβ concentrations in the cell were either 72 μM or 36 μM, and the concentrations of 7 were 175 μM and 222 μM respectively. The total ligand concentration was set in the syringe so that the titration stopped when the precipitation became excessive. Control experiments were performed by injecting the ligand into a cell containing buffer with no target, and the heats of dilution were subtracted from those measured in the presence of Aβ. Titrations were also performed with buffer in the syringe and Aβ oligomer sample in the cell to check for the heat response of Aβ dilution itself. The dilution heat of the Aβ oligomer samples was constant and negligible. Since the target is inherently inhomogeneous, and an a priori model of the binding events is not available,. the experimental data were fitted to the two independent site binding model by using a nonlinear least-squares procedure, with ΔHb, ΔHb', Ka, Ka' (association constants), N and N' (number of binding sites for monomer), as adjustable parameters. The exothermic peaks appearing after the fully precipitated phase was reached, were omitted from the regression.

Aβ oligomers [4] = target: T1, Aβ oligomers; test: Transmission electron microscopy of Aβ oligomers with ligand; conditions: 72 µM Aβ oligomer + 36 µM ligand
Description: The concentration-dependent increase of the particle size described above raised the question if this phenomenon was linked to an accelerated fibrillization or to any form of conformational remodeling of the Aβ oligomers. […] The shape of the aggregates was unequivocally different from that of the mature fibrils.
Figure 8 Affinity precipitation as detected by TEM. (A) TEM image of the 72 µM Aβ oligomer. (B) TEM image of the 72 µM Aβ oligomer upon addition of 36 µM 7.
Oligomer solution was placed on formvar-carbon-coated 400-mesh copper grids (Electron Microscopy Sciences, Washington, PA) and stained negatively with uranyl acetate. The aggregates were characterized by TEM on a Philips CM 10 transmission electron microscope (FEI Company, Hillsboro, Oregon, USA) operating at 100 kV. Images were taken with a Megaview II Soft Imaging System, routinely at magnifications of ×46000 and ×64000, and analyzed with an AnalySis® 3.2 software package (Soft Imaging System GmbH, Münster, Germany).

T1 sequence (P05067 672-713 limits assumed): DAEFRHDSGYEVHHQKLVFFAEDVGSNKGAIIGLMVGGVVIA

N=C(N)NCCC[C@@H](CC(=O)N[C@H]1CCCC[C@@H]1C(=O)N[C@H]1CCCC[C@@H]1C(=O)N[C@@H](CC(=O)O)CC(=O)N[C@H]1CCCC[C@@H]1C(=O)NCC(=O)NCC(=O)N[C@@H](CSC1CC(=O)N(CCC(=O)NCCNC(=O)CCN(CCC(=O)NCCNC(=O)CCN2C(=O)CC(SC[C@H](NC(=O)CNC(=O)CNC(=O)[C@H]3CCCC[C@@H]3NC(=O)C[C@H](CC(=O)O)NC(=O)[C@H]3CCCC[C@@H]3NC(=O)[C@H]3CCCC[C@@H]3NC(=O)C[C@H](CCCNC(=N)N)NC(=O)[C@H]3CCCC[C@@H]3N)C(N)=O)C2=O)CCN(CCC(=O)NCCNC(=O)CCN2C(=O)CC(SC[C@H](NC(=O)CNC(=O)CNC(=O)[C@H]3CCCC[C@@H]3NC(=O)C[C@H](CC(=O)O)NC(=O)[C@H]3CCCC[C@@H]3NC(=O)[C@H]3CCCC[C@@H]3NC(=O)C[C@H](CCCNC(=N)N)NC(=O)[C@H]3CCCC[C@@H]3N)C(N)=O)C2=O)CCC(=O)NCCNC(=O)CCN2C(=O)CC(SC[C@H](NC(=O)CNC(=O)CNC(=O)[C@H]3CCCC[C@@H]3NC(=O)C[C@H](CC(=O)O)NC(=O)[C@H]3CCCC[C@@H]3NC(=O)[C@H]3CCCC[C@@H]3NC(=O)C[C@H](CCCNC(=N)N)NC(=O)[C@H]3CCCC[C@@H]3N)C(N)=O)C2=O)C1=O)C(N)=O)NC(=O)[C@H]1CCCC[C@@H]1N (some centres unmarked) [Compound 7]
ECD: effect on β-sheet content of Aβ (Aβ oligomers [1]): did not lead to an immediate increase in the β-sheet content
LTP (potentiation) with Aβ(1–42) oligomers and ligand together ([2]; 720 nM Aβ(1–42) oligomers + 950 nM ligand, 180 min after LTP induction): 195±5%
LTP (potentiation) with ligand alone ([2]; 950 nM ligand, no Aβ oligomers): 184±16%
N (ITC stoichiometry, number of binding sites for monomer; first or single stage) (Aβ oligomers [3]): 0.041±0.00089 and 0.041
N' (ITC stoichiometry, lower affinity interaction) (Aβ oligomers [3]): 0.18±0.002 and 0.18
ΔHb (ITC; first binding step for 7, single stage for 8) (Aβ oligomers [3]): 7.24 ± 0.05 kcal/mol
ΔHb' (ITC, lower affinity interaction) (Aβ oligomers [3]): 2.58 ± 0.02 kcal/mol
TEM: effect on Aβ oligomer particle morphology (Aβ oligomers [4]): caused association of the spherical oligomers a few nm in size into bundles of aggregates in the μm range

Reference: paper PMC3408453, “A Foldamer-Dendrimer Conjugate Neutralizes Synaptotoxic β-Amyloid Oligomers” (PLoS ONE, 2012)
